Measured values as given in US9096589B2, “Heteroaromatic phenylimidazole derivatives as PDE10A enzyme inhibitors” (H. Lundbeck A/S, priority 2009, dated 2015).
pIC50: −log10 of the molar value.

Key:
[1] = tested on: rats; settings: cited from earlier work
[2] = tested on: rats; settings: cited from earlier work; remark: listed apart in the source
[3] = tested on: rats; settings: cited from earlier work; remark: listed apart in the source
[4] = biological target: PDE10A (Homo sapiens (Human), UniProt Q9Y233); assay: PDE10A inhibition assay; type: biochemical
PDE10A, sequence (Q9Y233 716-1055): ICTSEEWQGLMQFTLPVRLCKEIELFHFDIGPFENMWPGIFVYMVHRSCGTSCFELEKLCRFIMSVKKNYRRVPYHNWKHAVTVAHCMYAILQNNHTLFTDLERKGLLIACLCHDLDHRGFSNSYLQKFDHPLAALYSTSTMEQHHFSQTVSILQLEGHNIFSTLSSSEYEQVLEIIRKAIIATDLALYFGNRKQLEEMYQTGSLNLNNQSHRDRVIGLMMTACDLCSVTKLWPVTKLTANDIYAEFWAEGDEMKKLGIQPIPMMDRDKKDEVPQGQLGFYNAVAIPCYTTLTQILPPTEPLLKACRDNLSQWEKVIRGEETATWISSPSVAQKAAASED
Summary of the method: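 Human PDE10A catalytic domain (aa 440-779) was expressed in E. coli BL21(DE3), with enzyme set to convert 20-25% of substrate. Reactions used 5 nM [3H]cAMP in 50 mM HEPES pH 7.6, 10 mM MgCl2, 0.02% Tween20 and 0.1 mg/ml BSA for 1 h at rt, read by yttrium silicate SPA. IC50 is relative to the uninhibited control.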

Structure (SMILES) | pIC50 [4] | other results
COc1ccc(Cc2nccc3cc(OC)c(OC)cc23)cc1OC [Papaverine, papaverine] | – | hyperactivity induced by PCP [1]: reduced hyperactivity; catalepsy on its own ([2]; alone): did not cause catalepsy on its own; effect on the cataleptic effect of the D2 receptor antagonist haloperidol ([2]; with haloperidol): potentiated the cataleptic effect; reduction of amphetamine induced hyperactivity [3]: insignificant
CCCn1cc(-c2cccnc2)nc1CCc1nc2cccc(C)n2n1 [5-Methyl-2-[2-(1-propyl-4-pyridin-3-yl-1H-imidazol-2-yl)-ethyl]-[1,2,4]triazolo[1,5-a]pyridine] | 7.31 | –
COCCn1cc(-c2cccs2)nc1CCc1cn2c(C)cc(C)nc2n1 [2-{2-[1-(2-Methoxy-ethyl)-4-thiophen-2-yl-1H-imidazol-2-yl]-ethyl}-5,7-dimethyl-imidazo[1,2-a]pyrimidine] | 6.89 | –
COc1cccn2nc(/C=C/c3nc(-c4cncs4)cn3C)nc12 [8-Methoxy-2-[(E)-2-(1-methyl-4-thiazol-5-yl-1H-imidazol-2-yl)-vinyl]-[1,2,4]triazolo[1,5-a]pyridine] | 7.07 | –
Cc1ccc(C)n2nc(CCc3nc(-c4nccs4)cn3C)nc12 [5,8-Dimethyl-2-[2-(1-methyl-4-thiazol-2-yl-1H-imidazol-2-yl)-ethyl]-[1,2,4]triazolo[1,5-a]pyridine] | 8.64 | –
COc1cccn2nc(/C=C/c3nc(-c4cccs4)cn3C)nc12 [8-Methoxy-2-[(E)-2-(1-methyl-4-thiophen-2-yl-1H-imidazol-2-yl)-vinyl]-[1,2,4]triazolo[1,5-a]pyridine] | 7.21 | –
Cc1cc(C)n2cc(CCc3nc(-c4cncs4)cn3CC(O)c3ccc(Cl)cc3)nc2n1 (centres unmarked) [1-(4-Chloro-phenyl)-2-{2-[2-(5,7-dimethyl-imidazo[1,2-a]pyrimidin-2-yl)-ethyl]-4-thiazol-5-yl-imidazol-1-yl}-ethanol] | 8.24 | –

More lines, main results first:

pIC50 [4] | Structure (SMILES) | other results
6.92 | COc1cccn2nc(CCc3nc(-c4ccc(C)o4)c[nH]3)nc12 [8-Methoxy-2-{2-[4-(5-methyl-furan-2-yl)-1H-imidazol-2-yl]-ethyl}-[1,2,4]triazolo[1,5-a]pyridine] | –
7.25 | COc1cccn2nc(CCc3nc(-c4ccc(C)o4)cn3C)nc12 [8-Methoxy-2-{2-[1-methyl-4-(5-methyl-furan-2-yl)-1H-imidazol-2-yl]-ethyl}-[1,2,4]triazolo[1,5-a]pyridine] | –
7.85 | Cc1cccc2nc(CCc3nc(-c4cccs4)cn3C[C@@H](O)CN3CCOCC3)nn12 [(S)-1-{2-[2-(5-Methyl-[1,2,4]triazolo[1,5-a]pyridin-2-yl)-ethyl]-4-thiophen-2-yl-imidazol-1-yl}-3-morpholin-4-yl-propan-2-ol] | –
8.92 | CCCn1cc(-c2cccs2)nc1CCc1nc2c(OC)ccc(C)n2n1 [8-Methoxy-5-methyl-2-[2-(1-propyl-4-thiophen-2-yl-1H-imidazol-2-yl)-ethyl]-[1,2,4]triazolo[1,5-a]pyridine] | –
